We go through 4 molecules from PubChem BioAssay AID1963854 (Molecular Pharmacology Branch, DTP, NCI, 2024).

Several values for one entry are separate records, joined by “and”; a condition that tells them apart may be missing. Equal values may be shown once. A value given as a limit tells only on which side of the number the result lay.

The assay relates to 186277-243-T-J2-PDC complex spheroid viability. The experiment in a line: Anticancer human tumor 186277-243-T-J2-PDC patient-derived colon adenocarcinoma cell line growth inhibition [POLQ]. The conditions noted are these: for viability, T/C: stronger effect = lower value. The protocol:
Multicellular complex tumor spheroid response to Polymerase (POL) inhibitors (novobiocin, ART-558, RP6685) in combination with a variety of drugs and investigational agents in selected tumor cell lines
The POL inhibitors (novobiocin, ART-558, and RP6685) were evaluated both individually and in combination with standard of care and investigational anticancer small molecules within a complex spheroid model of solid tumors. . Complex spheroids include a stromal component modeled by human endothelial cells (HUVEC) and fibroblasts modeled by human mesenchymal stem cells (MSCs). The concentration ranges selected for each drug and investigational agent were based upon clinically achievable concentrations if the clinical Cmax of the agent was known.
Compounds. The drugs and investigational agents: novobiocin (NSC847541), ART-558 (NSC835418), RP-6685 (NSC848927), peposertib (NSC802822), ceralasertib (NSC780249), elimusertib (NSC800525), camonsertib (NSC841442), AZD-1390 (NSC803789), olaparib (NSC753686), talazoparib (NSC767125), rucaparib (NSC756644), sotorasib (NSC818433), MRTX-1133 (NSC836407), SN-38 (NSC673596), topotecan (NSC609699), epotoside (NSC141540), doxorubicin (NSC123127), gemcitabine (NSC613327), 5-fluorouracil (NSC19893), paclitaxel (NSC125973), vemurafenib (NSC761431), MSA-2 (NSC828583), SN-011 (NSC837082), adavosertib (NSC754352), prexasertib (NSC758257), carboplatin (NSC241240) and oxaliplatin (NSC266046), were obtained from the National Cancer Institute (NCI) Developmental Therapeutics Program Chemical Repository (21). The FDA-approved anticancer drug set is available from the Developmental Therapeutics Program at https://dtp.cancer.gov/organization/dscb/obtaining/. […] The stock solutions were prepared in dimethyl sulfoxide (DMSO, Sigma-Aldrich, St. Louis, MO, cat. D2650), except for the platinum compounds which were prepared in saline (Quality Biological, Gaithersburg, MD, cat. 114-055-101), at 800-fold the tested concentration and stored at -70 degrees C prior to their use. All drugs and investigational agents were tested over a range starting from a high concentration at or near the clinical Cmax and decreasing in half-log increments. If the clinical Cmax for an agent had not been determined, the highest concentration tested was 10 microM, except for SN-38, which was tested at a high concentration of 1 microM.
Cell Culture. All cells were maintained in an incubator at 37 degrees C and 5% CO2 with 95% humidity. The PDC lines were cultured according to standard operating procedures established by the NCI PDMR (https://pdmr.cancer.gov). Table 3 of the manuscript, lists the cell lines along with the number of the three cell types plated to form the mct-spheroids and media for tumor cell growth. After thawing, all PDC lines, except 997537-175-T-J1-PDC and 415267-285-R-J2-PDC, were cultured in Matrigel-coated flasks prepared with a working solution of 1X Ham's F-12 nutrient mix, without supplementation (Thermo Fisher Scientific, cat. 11765054), 100 U/mL penicillin-streptomycin (Thermo Fisher Scientific, cat. 15140122), and 2.5% Matrigel (Corning Inc., Corning, NY, cat. 354248) for the first three passages. The two PDC lines 997537-175-T-J1-PDC and 415267-285-R-J2-PDC were cultured on uncoated flasks. The 857933-349-R-J2-PDC line was cultured in 6C/Colon 1B media containing advanced DMEM/F-12 (Thermo Fisher Scientific, cat. 12634028), 10 mM HEPES (Thermo Fisher Scientific, cat. 15630080), 1X GlutaMAX supplement (Thermo Fisher Scientific, cat. 35050061), 0.1 mg/mL primocin (InvivoGen, San Diego, CA, cat. ant-pm-2), 10% defined fetal bovine serum, heat inactivated (HyClone Laboratories Inc., Logan, UT, cat. SH30070.03HI), 50% L-WRN conditioned media (ATCC, cat. CRL-3276), 1.25 mM N-Acetyl-L-cysteine (Sigma-Aldrich, cat. A9165), 10 mM nicotinamide (Sigma-Aldrich, cat. N0636), 1X B-27 supplement (Thermo Fisher Scientific, cat. 17504044), 1X N-2 supplement (Thermo Fisher Scientific, cat. […]
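Further: spheroids exposed to compounds for seven days.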

What is called IC50 is the concentration needed to halve the response being measured. Broadly, the viability, T/C is the result in the treated group divided by that in the control group, in per cent. For the molecule `COc1cc2cc(C(=O)CCC(=O)O)sc2cc1OC` + COC1C(OC(N)=O)C(O)C(Oc2ccc3c(O)c(NC(=O)c4ccc(O)c(CC=C(C)C)c4)c(=O)oc3c2C)OC1(C)C, the IC50 by setting is: (curve of first compound, second compound 0.0316 µM) greater than 10 µM; (curve of first compound, second compound 0.1 µM) greater than 10 µM; (curve of first compound, second compound 0.316 µM) greater than 10 µM; (curve of first compound, second compound 1 µM) greater than 10 µM; (curve of first compound, second compound 3.16 µM) greater than 10 µM; (curve of first compound, second compound 10 µM) greater than 10 µM. The viability, T/C was 110% (second compound 0.0316 µM, first compound 0.0316 µM); 99.3% (second compound 0.0316 µM, first compound 0.1 µM); 101% (second compound 0.0316 µM, first compound 0.316 µM); 99.2% (second compound 0.0316 µM, first compound 1 µM); 106% (second compound 0.0316 µM, first compound 3.16 µM); 96.6% (second compound 0.0316 µM, first compound 10 µM). In addition, the viability, T/C reads like this: (second compound 0.1 µM, first compound 0.0316 µM) 98.3%; (second compound 0.1 µM, first compound 0.1 µM) 88%; (second compound 0.1 µM, first compound 0.316 µM) 103%; (second compound 0.1 µM, first compound 1 µM) 101%; (second compound 0.1 µM, first compound 3.16 µM) 103%; (second compound 0.1 µM, first compound 10 µM) 103%. Also, the viability, T/C (second compound 0.316 µM, first compound 0.0316 µM) is 102%; the viability, T/C (second compound 0.316 µM, first compound 0.1 µM) is 102%; the viability, T/C (second compound 0.316 µM, first compound 0.316 µM) was 93.6%; the viability, T/C (second compound 0.316 µM, first compound 1 µM) was 99.5%; the viability, T/C (second compound 0.316 µM, first compound 3.16 µM) is 98.1%; the viability, T/C (second compound 0.316 µM, first compound 10 µM) was 120%. Besides, the viability, T/C (second compound 1 µM, first compound 0.0316 µM) was 111%; the viability, T/C (second compound 1 µM, first compound 0.1 µM) is 99.1%; the viability, T/C (second compound 1 µM, first compound 0.316 µM) was 109%; the viability, T/C (second compound 1 µM, first compound 1 µM) was 106%; the viability, T/C (second compound 1 µM, first compound 3.16 µM) is 110%; the viability, T/C (second compound 1 µM, first compound 10 µM) was 103%. Also, the viability, T/C is 89.5% (second compound 3.16 µM, first compound 0.0316 µM); 108% (second compound 3.16 µM, first compound 0.1 µM); 100% (second compound 3.16 µM, first compound 0.316 µM); 98.9% (second compound 3.16 µM, first compound 1 µM); 105% (second compound 3.16 µM, first compound 3.16 µM); 114% (second compound 3.16 µM, first compound 10 µM). Further, the viability, T/C by setting is: (second compound 10 µM, first compound 0.0316 µM) 106%; (second compound 10 µM, first compound 0.1 µM) 111%; (second compound 10 µM, first compound 0.316 µM) 110%; (second compound 10 µM, first compound 1 µM) 117%; (second compound 10 µM, first compound 3.16 µM) 105%; (second compound 10 µM, first compound 10 µM) 101%.

In the case of `COc1ccc([C@@H](O)c2cc(-c3ncnc4cc(N5CCOCC5)ccc34)c(F)cc2Cl)nn1`, the viability, T/C runs as follows: (compound 0.0316 µM) 113% and 93.8% and 106%; (compound 0.1 µM) 98% and 93.7% and 97.8%; (compound 0.316 µM) 86.5% and 101% and 97.7%; (compound 1 µM) 98.4% and 104% (2×); (compound 3.16 µM) 80.8% and 96.9% and 74.1%; (compound 10 µM) 31.1% and 61% and 30.1%. The IC50 (curve of compound) is 6.45 µM and > 10 µM and 5.93 µM.

On to `COc1cccc(OCCCN)c1-c1cc(Nc2cnc(C#N)cn2)n[nH]1`, for which the viability, T/C runs as follows: (compound 0.01 µM) 5.26% and 13.4% and 12.2%; (compound 0.0316 µM) 4.75% and 10.6% and 9.65%; (compound 0.1 µM) 4.55% and 9.76% and 10.4%; (compound 0.316 µM) 4.05% and 9.54% and 9.26%; (compound 1 µM) 5.58% and 9.9% and 9.33%. Moreover, the IC50 (curve of compound) was less than 0.00316 µM.

With `CCc1c2c(nc3ccc(O)cc13)-c1cc3c(c(=O)n1C2)COC(=O)[C@]3(O)CC`, the viability, T/C is, setting by setting: (compound 0.00316 µM) 71.2% and 120% and 58.7%; (compound 0.01 µM) 48.6% and 82.9% and 43.5%; (compound 0.0316 µM) 25.4% and 47% and 22.2%; (compound 0.1 µM) 12.7% and 25.5% and 10.8%; (compound 0.316 µM) 9.65% and 21.7% and 8.26%; (compound 1 µM) 7.75% and 21.3% and 6.71%. Besides, under “curve of compound”, the IC50 was 0.00935 µM and 0.0277 µM and 0.00611 µM.
